Assay results as given in PubChem BioAssay (NCI).
“And” between values parts separate entries of the source, which are not always exact repeats. Equal entries are not always repeated.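 Assay format: 96-well plates, 48-hour exposure. At the GI50, growth is halved. The concentration for full growth arrest is given as TGI.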

Tests used:
Test in all cases: NCI anticancer screen, dose series, 48 h
SR leukemia = tested on: SR leukemia
U251 CNS = tested on: U251 CNS
MOLT-4 leukemia = tested on: MOLT-4 leukemia
OVCAR-3 ovarian = tested on: OVCAR-3 ovarian
IGROV1 ovarian = tested on: IGROV1 ovarian
MDA-MB-435 = tested on: MDA-MB-435
MDA-MB-231 breast = tested on: MDA-MB-231 breast
UO-31 renal = tested on: UO-31 renal
M14 melanoma = tested on: M14 melanoma
A498 renal = tested on: A498 renal

Structure (SMILES) | TGI (SR leukemia) [µM] | TGI (U251 CNS) | TGI (MOLT-4 leukemia) | TGI (OVCAR-3 ovarian) | TGI (IGROV1 ovarian) | TGI (MDA-MB-435) [µM] | TGI (MDA-MB-231 breast) [µM] | TGI (UO-31 renal) | TGI (M14 melanoma) | TGI (A498 renal) | GI50 (U251 CNS) [µM] | GI50 (MOLT-4 leukemia) [µM] | GI50 (OVCAR-3 ovarian) [µM] | GI50 (IGROV1 ovarian) [µM] | GI50 (MDA-MB-435) [µM] | GI50 (MDA-MB-231 breast) [µM] | GI50 (UO-31 renal) [µM] | GI50 (M14 melanoma) [µM] | GI50 (A498 renal) [µM] | GI50 (SR leukemia) [µM]
COc1cccc2c1-c1nc(N)c3c(OC)cccc3c1C2=O | > 100 | > 100 µM | > 100 µM | > 100 µM | > 100 µM | > 100 | > 100 | > 100 µM | > 100 µM | > 100 µM | – | – | – | – | – | – | – | – | – | –
O=C(O)C1=C/C(=C(/c2ccccc2)c2cc(C(=O)O)c(O)c3ccccc23)c2ccccc2C1=O | > 100 | > 100 µM | > 100 µM | > 100 µM | > 100 µM | > 100 | > 100 | > 100 µM | > 100 µM | > 100 µM | – | – | – | – | – | – | – | – | – | –
CN(C)c1ccc(/C=C\c2ccnc3ccccc23)cc1 | > 100 | > 100 µM | > 100 µM | > 60 µM | > 100 µM | > 30.5 | > 73.9 | 68.7 µM | > 66 µM | > 26.7 µM | 9.43 | 14.5 | 7.88 | 8.85 | 1.47 | 11.3 | 4.4 | 4.42 | 7.57 | –
O=C1NC(=NCc2ccccc2Cl)S/C1=C\c1ccc2ncccc2c1 | > 19.6 | > 25 µM | > 25 µM | > 25 µM | > 25 µM | > 25 | > 25 | > 25 µM | > 25 µM | > 21.5 µM | 6.44 | > 25 | 17.6 | 9.01 | 6.83 | > 25 | > 13.6 | 16.3 | 4.21 | 1.04
NS(=O)(=O)c1ccc(Nc2cc(-c3ccc(O)c(F)c3)[nH]n2)cc1 | > 25 | > 25 µM | > 25 µM | > 25 µM | > 25 µM | > 25 | > 25 | > 25 µM | > 25 µM | > 25 µM | 16.4 | > 25 | 9.43 | > 25 | > 23.5 | > 25 | > 25 | 15.4 | > 25 | 12.5
COC(=O)NC1C(C)OC(OC2C/C=C(/C)C3C=CC4C(OC5CC(OC6CCC(OC7CC(O)C(OC8CCC(O)C(C)O8)C(C)O7)C(C)O6)C(OC(C)=O)C(C)O5)C(C)CC(C)C4C3(C)/C(O)=C3/C(=O)OC4(CC(C=O)=CC(O)C4/C=C\2C)C3=O)CC1(C)[N+](=O)[O-] (stereo unspecified) | 11 | 0.901 µM and 0.499 µM | 4.78 µM and 0.634 µM | 2.7 µM and 2.12 µM | 8.43 µM and 3.15 µM | 1.06 | 3.49 | 3.76 µM and 0.521 µM | 2.42 µM and 1.54 µM | 1.65 µM and 0.508 µM | 0.179 | 0.131 | 0.484 | 1.47 | – | – | 0.254 | 0.382 | 0.199 | –
O=C1NC(=S)S/C1=C\c1cn(-c2ccccc2)nc1-c1ccccc1 | 49.7 | 21.2 µM | > 100 µM | 29 µM | 38.9 µM | 36.6 | 33.3 | 25.2 µM | 80.2 µM | 18.2 µM | 5.54 | 14.8 | 11.6 | 13.9 | 4.91 | 10.1 | 4.39 | 6.75 | 2.99 | 7.29
